Source: the METLIN SMRT retention time set (Domingo-Almenara et al. 2019)

Test: gradient 5% acetonitrile 3 min, to 50% in 2 min, to 85% in 15 min, held 3 min, 100 µL/min
Details: column: Zorbax Extend-C18 2.1 x 50 mm; eluents: water / acetonitrile, 0.1% formic acid
Outline: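 Retention times come from adduct peaks that were picked computationally and then checked by hand. The standards, pure and pooled in mixtures of ~100 molecules, were run on a Zorbax Extend-C18 column (2.1 × 50 mm, 1.8 μm) at 100 μL/min with water and acetonitrile, each with 0.1% formic acid. Detection was by quadrupole time-of-flight mass spectrometry in positive and negative ionization mode, with a dead volume of 40 μL and a dwell volume of 900 μL.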

Compound	RP-LC retention time
CC(=O)N1C[C@@H](C(=O)NCc2cccs2)[C@H](c2nc(C)no2)C1	630 s
CC(=O)Oc1ccc2c(=O)c(Oc3ccc([N+](=O)[O-])cc3)c(C)oc2c1	854 s
Cc1c(Cl)cccc1NC(=O)c1cccc([N+](=O)[O-])c1O	975 s
COc1cccc(C(=O)N2CCC3(C2)C(=O)N(C)c2ccccc23)c1OC (stereo not drawn)	749 s
Cc1cc(=O)n(CC(=O)N2CCc3ccccc32)c(N2CCOCC2)n1	667 s
CC(C)n1c(=O)sc2cc(S(=O)(=O)N3CCC(C(=O)Nc4ccc(Cl)cc4)CC3)ccc21	1050 s
CCOC(=O)c1cc(C2CC2)nc2c1c(=O)n(Cc1ccc(C)cc1)c(=O)n2C	1260 s
COc1cccc(C(=O)NC(c2ccccc2)c2nnc(N3CCCC3)o2)c1 (stereo not drawn)	788 s
Cc1cc(C)n(-c2c3c(nc4c(-c5ccccc5)c(C)nn24)CCC3)n1	982 s
O=C(NC1CCN(c2cc(-c3ccc(F)cc3)[nH]n2)CC1)C1COc2ccccc2O1 (stereo not drawn)	824 s
COc1ccc(-c2ncccc2CNS(=O)(=O)Cc2ccccc2F)cc1	660 s
Cc1nc(-c2csc(S(=O)(=O)N3CCC(C(=O)Nc4ccc(Cl)cc4F)CC3)c2)no1	990 s
CN(C)C(CNC(=O)c1cc(-c2ccccc2)on1)c1ccco1 (stereo not drawn)	653 s
O=C(N1CC(Oc2cccc(-c3nc(-c4ccccc4)no3)c2)C1)C1(c2ccccc2)CC1	1310 s
CC(=O)N1CCCSc2ccc(S(=O)(=O)N3CCN(c4cc(Cl)ccc4C)CC3)cc21	1180 s
O=C(Nc1ccc(Cl)cc1)C1CCN(c2nccnc2Sc2ccccc2)CC1	1160 s
COC[C@@H]1CN(S(=O)(=O)c2cccc(C)c2)C[C@H]1c1ccccn1	651 s
CCOC(=O)c1ccc(NC(=O)N(Cc2cc(=O)[nH]c3ccccc23)C(C)C)cc1	772 s
Cc1nc2ccccc2nc1SCC(=O)c1ccccc1	970 s
Cc1cccc(CNC(=O)c2cc(C(C)C)n3nccc3n2)c1	1310 s
O=C(Nc1cccc(-c2cn3c(n2)SCC3)c1)c1cc(-c2ccco2)on1	667 s
Cc1csc(-c2ccc(N3CCN(C(=O)c4cccc(F)c4)CC3)nc2)n1	822 s

Compound	RP-LC retention time
CCc1ccc(-c2noc(CSc3nc4cc5c(cc4c(=O)n3CCOC)OCO5)n2)cc1	1190 s
CCn1nc(CNC(=O)c2ccccn2)c2ccccc21	796 s
COCCn1cc(C(=O)Nc2cccc(F)c2)c2nn(-c3ccccc3)c(=O)c-2c1	970 s
CCc1ccc(NC(=O)C2CCN(S(C)(=O)=O)c3ccccc3O2)cc1 (stereo not drawn)	912 s
CCCOc1ccc(CNC(=O)C2CCc3nc(N4CCCCC4)ncc3C2)cc1 (stereo not drawn)	850 s
Brc1ccc(OCc2nn3c(-c4ccccn4)nnc3s2)cc1	872 s
CC(C)CCC(=O)N1CCN(c2nc3c(s2)CN(C)CC3)CC1	597 s
COc1ccc(-c2cn3c(CC(=O)N4CCN(c5ccc(F)cc5)CC4)csc3n2)cc1OC	743 s
CCOC(=O)C1=C(CN2CCC(Cc3ccccc3)CC2)NC(=O)NC1c1cccs1 (stereo not drawn)	884 s
Cc1cccc(CN2CCc3nc(N4CCN(c5ccccc5F)CC4)ncc3C2)c1	810 s
Fc1ccc(-c2noc(CCc3nnc4ccc(N5CCN(C6CCCCC6)CC5)nn34)n2)cc1	653 s
Cc1cc(-c2nnc(C3CC3)o2)c(C)n1CC(=O)NC(C)c1ccccc1 (stereo not drawn)	790 s
CC(C)c1nnc2n1CCN(C(=O)CC1CCCCC1)C2	699 s
O=C(NCCc1c[nH]c2ccc(Cl)cc12)c1cc2n(n1)CCCN(Cc1ccc(Cl)cc1)C2=O	998 s
Cc1ccc(CN2CCCC(c3nc(C(C)C)no3)CCNC(=O)CC2)o1 (stereo not drawn)	636 s
CCN1CCC(CCNC(=O)C2CCc3sc(C(=O)N4CCCC4)cc3C2)CC1 (stereo not drawn)	582 s
COc1ccccc1-c1nnc(-c2cc(S(=O)(=O)N3CCOCC3)ccc2Cl)o1	902 s
Cc1ccc(-c2csc(NC(=O)CCc3nc(CSc4nc5ccc(C)cc5[nH]4)no3)n2)cc1	852 s
COCCNC(=O)c1cc2c(n(-c3ccc(C(C)C)cc3)c1=O)CCCC2=O	872 s
CCOC(=O)c1ccccc1NC(=O)Cn1cnc2nc(-c3cccnc3)ncc2c1=O	744 s
CCOc1ccc(C(=O)N2C[C@@H]3C[C@H](NC(=O)c4cccs4)[C@H]2C3)cc1	783 s
